In ChEMBL document CHEMBL1143953, “Novel 2-phenylquinolin-7-yl-derived imidazo[1,5-a]pyrazines as potent insulin-like growth factor-I receptor (IGF-IR) inhibitors” (Bioorg Med Chem, 2008):

Tests used:
[1] = biological target: Insulin-like growth factor 1 receptor (Homo sapiens, UniProt P08069)
Description: Inhibition of human recombinant full length IGF1R expressed in mouse 3T3 cells

[2] = biological target: Cytochrome P450 3A4 (Homo sapiens, UniProt P08684); assay: Inhibition of CYP3A4; type: ADME
Chain of Cytochrome P450 3A4 (P08684 whole entry): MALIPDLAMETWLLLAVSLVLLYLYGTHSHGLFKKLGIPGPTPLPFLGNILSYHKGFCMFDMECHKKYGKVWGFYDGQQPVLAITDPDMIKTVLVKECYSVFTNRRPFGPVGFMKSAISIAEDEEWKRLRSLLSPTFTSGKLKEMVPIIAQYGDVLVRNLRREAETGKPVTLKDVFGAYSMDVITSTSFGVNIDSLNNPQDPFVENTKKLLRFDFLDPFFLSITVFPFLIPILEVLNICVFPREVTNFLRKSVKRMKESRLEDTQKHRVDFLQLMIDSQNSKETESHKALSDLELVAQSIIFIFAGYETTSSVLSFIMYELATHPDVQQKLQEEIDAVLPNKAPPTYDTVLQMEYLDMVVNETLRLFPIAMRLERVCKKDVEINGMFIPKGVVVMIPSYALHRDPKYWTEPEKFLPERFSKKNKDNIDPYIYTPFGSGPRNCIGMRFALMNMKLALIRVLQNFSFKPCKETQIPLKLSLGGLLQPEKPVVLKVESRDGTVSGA

Chain of Insulin-like growth factor 1 receptor (P08069 31-736 limits assumed): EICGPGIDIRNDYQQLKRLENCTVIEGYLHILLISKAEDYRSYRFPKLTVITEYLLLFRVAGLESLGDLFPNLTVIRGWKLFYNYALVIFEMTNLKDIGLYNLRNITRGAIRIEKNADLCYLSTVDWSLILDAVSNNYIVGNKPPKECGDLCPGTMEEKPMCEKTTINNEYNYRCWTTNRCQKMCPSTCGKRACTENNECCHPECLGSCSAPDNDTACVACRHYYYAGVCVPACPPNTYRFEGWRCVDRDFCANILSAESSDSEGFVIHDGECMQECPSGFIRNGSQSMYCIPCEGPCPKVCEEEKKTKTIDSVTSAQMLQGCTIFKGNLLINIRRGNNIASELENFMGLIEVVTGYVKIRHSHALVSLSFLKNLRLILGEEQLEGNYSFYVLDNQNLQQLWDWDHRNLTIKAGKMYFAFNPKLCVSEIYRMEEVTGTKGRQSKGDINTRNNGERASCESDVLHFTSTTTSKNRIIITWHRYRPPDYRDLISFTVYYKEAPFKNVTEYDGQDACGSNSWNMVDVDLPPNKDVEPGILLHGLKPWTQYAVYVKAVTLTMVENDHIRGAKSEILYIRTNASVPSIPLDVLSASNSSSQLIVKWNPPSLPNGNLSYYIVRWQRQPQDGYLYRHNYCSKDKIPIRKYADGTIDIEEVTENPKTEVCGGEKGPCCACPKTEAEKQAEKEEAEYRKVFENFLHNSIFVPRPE
Chain of Insulin-like growth factor 1 receptor (P08069 741-1367 limits assumed): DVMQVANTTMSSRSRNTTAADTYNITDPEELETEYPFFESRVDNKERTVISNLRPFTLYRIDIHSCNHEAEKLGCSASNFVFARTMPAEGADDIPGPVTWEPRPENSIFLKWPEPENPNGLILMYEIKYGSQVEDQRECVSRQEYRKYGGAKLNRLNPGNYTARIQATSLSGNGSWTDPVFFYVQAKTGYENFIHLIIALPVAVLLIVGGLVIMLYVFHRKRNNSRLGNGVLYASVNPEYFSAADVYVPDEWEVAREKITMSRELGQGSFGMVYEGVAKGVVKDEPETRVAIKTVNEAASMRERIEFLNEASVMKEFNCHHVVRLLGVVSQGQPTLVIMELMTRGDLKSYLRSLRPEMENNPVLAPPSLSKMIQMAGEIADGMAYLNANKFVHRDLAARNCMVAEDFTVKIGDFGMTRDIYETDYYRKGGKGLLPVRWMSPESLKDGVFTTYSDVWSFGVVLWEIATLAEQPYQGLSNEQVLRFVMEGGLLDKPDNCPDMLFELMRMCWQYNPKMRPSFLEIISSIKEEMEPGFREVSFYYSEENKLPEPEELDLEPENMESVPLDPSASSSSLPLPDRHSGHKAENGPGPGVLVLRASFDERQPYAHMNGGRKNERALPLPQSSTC

IC50 [1] [µM] | IC50 [2] [µM] | SMILES
> 10 |  | Nc1nccn2c(C3CCC3)nc(-c3ccc4cccnc4c3)c12
 | 17 | Nc1nccn2c1c(-c1ccc3ccc(-c4ccccc4)nc3c1)nc2[C@H]1C[C@@H](N2CCCC2)C1
 | 15 | CN(C)C[C@H]1C[C@H](c2nc(-c3ccc4ccc(-c5ccccc5)nc4c3)c3c(N)nccn32)C1
 | > 20 | Nc1nccn2c1c(-c1ccc3ccc(-c4ccccc4)nc3c1)nc2[C@H]1C[C@@H](CN2CCOCC2)C1
